# Results published in patent US4499019A, “N-(1-allyl-2-pyrrolidylmethyl)-2,3-dimethoxy-5-sulfamoylbenzamide and derivatives thereof and method for treating hot flushes associated with natural or surgical menopause” (Societe D'Etudes Scientifiques et Industrielles de l'Ile de …, priority 1976, dated 1985).
# Read-outs that look alike come from different tables or passages of the source.
# What was measured:
# female hamster = assay: Effects on ovary and mammary glands in the female hamster; type: in vivo
# Description: (§1) Experiments have been carried out on both the female rat and the female hamster. The changes produced by the compound at the level of the ovary and of vaginal cytology make it possible to predict a point of impact located at the level of the hypothalamo hypophyso-ovarian axis.
# [1] = Acute toxicity in the Swiss mouse (parenteral and oral administration); details: in vivo
# Description: (§2) The acute toxicity of the compound was studied in the Swiss mouse with both parenteral and oral administration and in the Wistar rat with oral administration.
# Wistar rat = assay: Acute toxicity in the Wistar rat (oral administration); type: in vivo
# Description: as §2
# However, the LD0 is approximately 1.5 g/kg.
# [2] = system: psycho neuro-vegetative symptoms of the menopause; assay: Double-blind study against placebo on the psycho neuro-vegetative symptoms of the menopause; type: in vivo, human; details: forty observations, double blinding against placebo
# Description: The action of the compound on the psycho neuro-vegetative symptoms of the menopause has been studied with double blinding against placebo.
# patients = details: human, in vivo
# female rat = assay: Effects on ovary, vaginal cytology and mammary glands in the female rat; type: in vivo
# Description: as §1
# [3] = Semichronic toxicity in the Wistar rat, oral, four weeks; details: in vivo, doses 0.5, 1 and 2 g/kg per 24 hours, read-out: relatively or completely non-toxic up to (dose)
# Procedure: In the rat the compound was administered in doses of 0.5, 1 and 2 g/kg per 24 hours.
# male rats = details: rat, in vivo, sc
# Procedure: The compound was administered subcutaneously to male rats. The criterion for the cataleptic state was the immobility of the animal for 30 seconds with its front limbs apart and arranged carefully on cubes of wood 4 centimeters high, thus placing the animal in an unaccustomed and uncomfortable position.
# [4] = system: psycho neuro-vegetative syndrome of the natural or surgical menopause
# Procedure: A patient, suffering considerable neuro-vegetative symptoms in the natural menopause mainly with attacks of sweating and hot flushes (30-40 a day), was treated orally with N-(1'-allyl-2'-pyrrolidylmethyl)-2,3-dimethoxy-5-sulfamoylbenzamide at a dosage of 100 mg per day. […] The following is a comparison of the patient's neuro-vegetative symptoms before treatment with treatment after eight days:
# The patient was treated orally with N-(1'-allyl-2'-pyrrolidylmethyl)-2,3-dimethoxy-5-sulfamoylbenzamide at a dosage rate of 100 mg per day.
# A patient had considerable neuro-vegetative symptoms in the natural menopause with mainly hot flushes and headaches.
# The patient was treated orally with N-(1'-allyl-2'-pyrrolidylmethyl)-2,3-dimethoxy-5-sulfamoylbenzamide at a dosage rate of 100 mg per day for twenty days.
# The patient was treated again in the same manner as previously at a dosage rate of 100 mg per day for twenty days.
# A patient suffered neuro-vegetative symptoms in the surgical menopause with mainly hot flushes which set in following a hysterectomy for a fibroid tumor.
# [5] = system: psycho neuro-vegetative syndrome of the natural or surgical menopause; assay: Clinical results in patients with psycho neuro-vegetative syndrome of the menopause (243 patients); type: in vivo, human
# [6] = female hamster, subcutaneous injections, 3.5 and 10 mg/kg
# [7] = female rat, subcutaneous injections, 3.5 and 10 mg/kg
# [8] = Example 18, 100 mg per day oral, after eight days, before: Severe
# [9] = Example 19, 100 mg per day oral, eight days, before: Severe
# [10] = Example 20, 100 mg per day oral for twenty days, before: Severe
# [11] = Example 21, 100 mg per day oral for twenty days, before: Severe
# [12] = Example 21, 100 mg per day oral for twenty days, before: Yes
# [13] = Example 22, 100 mg per day oral for twenty days, before: Medium
# [14] = Example 22, 100 mg per day oral for twenty days, before: Yes
# [15] = Example 23, 100 mg per day oral for twenty days, before: Severe
# [16] = Example 23, 100 mg per day oral for twenty days, before: Yes
structure (smiles),measurement,setting,value
"C=CCN1CCCC1CNC(=O)c1cc(S(N)(=O)=O)cc(OC)c1OC (stereo not drawn) [N-(1'-allyl-2'-pyrrolidylmethyl)-2,3-dimethoxy-5-sulfamoylbenzamide]",corpora lutea of the ovary,female hamster; [6],caused the corpora lutea of the ovary to be maintained
same,progesterone secretion by the maintained corpora lutea,female hamster; [6],secreted increased quantities of progesterone
same,development of the mammary glands,female hamster; hamster,development of the mammary glands was noted
same,secretory activity of the mammary glands,"female hamster; hamster, at the highest doses",signs of secretory activity
same,LD50,[1]; ip,320 mg/kg
same,LD50,[1]; iv,124 to 129 mg/kg
same,LD50,[1]; po,1300 mg/kg
same,LD50,[1]; sc,465 to 518 mg/kg
same,LD50,"Wistar rat; Wistar rat, oral",toxicity of the compound was so low that the LD50 could not be determined
same,LD0,"Wistar rat; rat, in vivo, po",approximately 1.5 g/kg
same,LD100,"Wistar rat; rat, in vivo, po",> 4000 mg/kg
same,difference between compound and placebo,[2],very significant difference
same,clinical and biological tolerance,patients,excellent
same,"side effects including mammary congestion, galactorrhea, drowsiness, etc. (cases)",patients,less than 8 % of the cases
same,acceptability of the treatment,patients; po,perfect acceptability
same,general tolerance,patients; po,excellent general tolerance
same,"premature interruption of treatment, aversion or troublesome side effects",patients; po,In no case was the course of treatment interrupted prematurely
same,change to the uterus,female rat; female rat,little change to the uterus
same,vaginal cycle,female rat; female rat,blocked in dioestrus
same,vaginal epithelium,female rat; female rat,"primsmatic, indicating the predominance of progesterone over estrogens"
same,corpora lutea of the ovary,female rat; [7],caused the corpora lutea of the ovary to be maintained
same,progesterone secretion by the maintained corpora lutea,female rat; [7],secreted increased quantities of progesterone
same,"susceptibility, rat versus hamster",female rat; mammary gland development,The rat appeared to be more susceptible than the hamster
same,development of the mammary glands,female rat; rat,development of the mammary glands was noted
same,secretory activity of the mammary glands,"female rat; rat, at the highest doses",signs of secretory activity
same,NOAEL at 672 h,[3],1000 mg/kg/day
same,cataleptic action,male rats,virtually no cataleptic action
same,animals made cataleptic,male rats; 200 mg/kg,30%
same,results of the treatment,"[4]; 100 mg per day oral, first treatment, Examples 19, 20, 22",excellent
same,"Headaches, After Treatment","[4]; Example 18, 100 mg per day oral, after eight days, before: Medium",None
same,"Hot Flushes: Frequency, After Treatment",[4]; [8],None
same,"Hot Flushes: Intensity, After Treatment",[4]; [8],None
same,"Irritability, After Treatment",[4]; [8],Slight
same,"Anxiety, After Treatment","[4]; Example 18, 100 mg per day oral, after eight days, before: Slight",None
same,flashes and sweating attacks,"[4]; Example 18, 100 mg per day oral, after two days (before: hot flushes 30-40 a day)",8 per day
same,"Anxiety, After Treatment","[4]; Example 19, 100 mg per day oral, eight days, before: Medium",Slight
same,"Headaches, After Treatment",[4]; [9],Slight
same,"Hot Flushes: Frequency, After Treatment",[4]; [9],None
same,"Hot Flushes: Intensity, After Treatment",[4]; [9],None
same,"Irritability, After Treatment",[4]; [9],Slight
same,"Headaches, After Treatment","[4]; Example 20, 100 mg per day oral for twenty days, before: Medium",None
same,"Hot Flushes: Frequency, After Treatment",[4]; [10],None
same,"Hot Flushes: Intensity, After Treatment",[4]; [10],None
same,"Irritability, After Treatment",[4]; [10],Slight
same,"Hot Flushes: Frequency, Twenty Days After Treatment",[4]; [11],None
same,"Hot Flushes: Intensity, Twenty Days After Treatment",[4]; [11],None
same,"Abdominal Meteorism, Twenty Days After Treatment",[4]; [12],No
same,"Anxiety, Twenty Days After Treatment",[4]; [12],No
same,"Hot Flushes: Frequency, Twenty Days After Treatment",[4]; [13],None
same,"Hot Flushes: Intensity, Twenty Days After Treatment",[4]; [13],None
same,"Anxiety, Twenty Days After Treatment",[4]; [14],No
same,"Irritability, Twenty Days After Treatment",[4]; [14],No
same,reappearance of symptoms after end of second treatment,"[4]; Example 23, 100 mg per day oral for twenty days",appeared again five days after termination of the second treatment
same,"Hot Flushes: Frequency, Twenty Days After Treatment",[4]; [15],Slight
same,"Hot Flushes: Intensity, Twenty Days After Treatment",[4]; [15],Slight
same,"Anxiety, Twenty Days After Treatment",[4]; [16],No
same,"Depression, Twenty Days After Treatment",[4]; [16],No
same,"Irritability, Twenty Days After Treatment",[4]; [16],Yes
same,"Libido Change, Twenty Days After Treatment",[4]; [16],Yes
same,Vulvar Irritation: Percentage Very Good & Good,[5]; 32 cases,84%
same,"Vulvar Irritation: Results, Average & Zero (number of cases)",[5]; 32 cases,5
same,"Vulvar Irritation: Results, Very Good & Good (number of cases)",[5]; 32 cases,27
same,Hot Flushes: Percentage Very Good & Good,[5]; 211 cases,73.9%
same,"Hot Flushes: Results, Average & Zero (number of cases)",[5]; 211 cases,55
same,"Hot Flushes: Results, Very Good & Good (number of cases)",[5]; 211 cases,156
same,effectiveness excellent or good in hot flushes,[5]; cases of hot flushes,74 % of the cases
same,vulvar irritation eliminated,[5]; cases of vulvar irritation,84 % of the cases
same,"effective in psycho neuro-vegetative syndrome of the menopause (hot flashes, vulvar pruritus, vaginal diseases)","[5]; patients, menopause",84 % of the cases treated
same,patient's mental state,"[5]; patients, natural or surgical menopause",parallel improvement in the patient's mental state
